Here are results for 4 molecules from patent US12391652B2 (priority 2019, dated 2025).

SMILES strings stand for the structures.

Assay [1] has as its system blast fungus (Pyricularia oryzae). The format is in vivo. To be noted: for Efficacy (%): 50 ppm foliar spray on rice (cv; Hinohikari), 8 days outdoor, then 11 days in contact with infected rice plants, lesion area vs untreated group; for Efficacy compared to the Ra4 type crystal form: rice blast, 50 ppm.
Assay [2] deals with soybean rust fungus (Phakopsora pachyrhizi). As to the kind of experiment: Test Example 1: curative foliar spray against soybean rust on potted soybean. The format is in vivo. To be noted: for Efficacy (%): 2 ppm foliar spray on soybean (cv; Kurosengoku) 4 days after inoculation, lesion area 7 days after spraying vs untreated group. How it is done:
Each of 5 parts of the Ra1 type crystal form, or the Ra4 type crystal form as comparison control, 35 parts of a mixture of white carbon and ammonium polyoxyethylene alkyl ether sulfate (weight ratio is 1:1) and 60 parts of water were mixed, and the mixture was then finely-ground by a wet grinding method to obtain a formulation. Water was then added to the formulation so as to be 2 ppm as the concentration of the Ra1 type crystal form or the Ra4 type crystal form to obtain dilutions respectively.
Each of plastic pots was filled with soil and thereto soybean (cv; Kurosengoku) seeds were sown and the soybeans were grown in a greenhouse for 15 days. Thereafter, an aqueous suspension of spores of soybean rust fungus (Phakopsora pachyrhizi) was spraying-inoculated. After the inoculation, the soybeans were placed under a dark and wet condition at 23° C. for 1 night and were further cultivated in a greenhouse for 3 days, and the above-mentioned diluted dilutions were sprayed to foliar parts so as to adhere adequately on the leaves of the above-mentioned soybean. After spraying the dilutions, the plants were air-dried and were placed under a dark and wet condition at only night, and after 7 days of the spraying, the lesion area was observed (lesion area in treated group).
Whereas, in the untreated group, the similar procedures to those of the treated group except that the Ra1 type crystal form or the Ra4 type crystal form were not applied, were carried out and the lesion area of soybean rust disease in the untreated group was observed (lesion area in untreated group).
From each of the lesion area in the treated group or the untreated group respectively, the efficacy in the treated group was calculated by the following “Equation 1”. Efficacy (%)=[1−(lesion area in the treated group/lesion area in the untreated group)]×100 [Equation 1]

For `CC1CC(C)(C)c2cccc(NC(=O)c3cn(C)nc3C(F)F)c21` (racemic) [Ra3 type crystal form, 3-(difluoromethyl)-1-methyl-N-(1,1,3-trimethyl-2,3-dihydro-1H-inden-4-yl)-1H-pyrazole-4-carboxamide], in assay [1], the “Efficacy (%)” value is listed as 75% and the “Efficacy compared to the Ra4 type crystal form” value was “higher efficacy compared to the Ra4 type crystal form”.

For `CC1CC(C)(C)c2cccc(NC(=O)c3cn(C)nc3C(F)F)c21` (racemic) [Ra2 type crystal form, 3-(difluoromethyl)-1-methyl-N-(1,1,3-trimethyl-2,3-dihydro-1H-inden-4-yl)-1H-pyrazole-4-carboxamide], in assay [1], the “Efficacy (%)” value worked out at 85% and the “Efficacy compared to the Ra4 type crystal form” value is on record as “higher efficacy compared to the Ra4 type crystal form”.

With `CC1CC(C)(C)c2cccc(NC(=O)c3cn(C)nc3C(F)F)c21` (racemic) [Ra1 type crystal form, 3-(difluoromethyl)-1-methyl-N-(1,1,3-trimethyl-2,3-dihydro-1H-inden-4-yl)-1H-pyrazole-4-carboxamide], in assay [2], the “Efficacy (%)” value is 72%. Further, the “Efficacy compared to the Ra4 type crystal form” value in assay [2] (soybean rust, 2 ppm) was “higher efficacy compared to the Ra4 type crystal form”.

`CC1CC(C)(C)c2cccc(NC(=O)c3cn(C)nc3C(F)F)c21` (racemic) [Ra4 type crystal form, 3-(difluoromethyl)-1-methyl-N-(1,1,3-trimethyl-2,3-dihydro-1H-inden-4-yl)-1H-pyrazole-4-carboxamide, reference compound]: the “Efficacy (%)” value in assay [1] came to 50%; in assay [2] it was 54%.
